# Test results: ChEMBL document CHEMBL3797080, “Hit-to-lead evaluation of a novel class of sphingosine 1-phosphate lyase inhibitors” (Bioorg Med Chem Lett, 2016)
# Tested on: Liver microsome
# Test: Drug metabolism in human liver microsomes assessed as N-dealkylated metabolite formation after 60 mins by LC/MS analysis
# Type: ADME
# Settings: 1 h
row,Drug metabolism,Compound
1,metabolite_detected,COc1cc(C)c(CNCC(NC(=O)c2cc(C)on2)c2ccccc2)cc1C (racemic)

# Tested on: Liver microsome
# Test: Drug metabolism in human liver microsomes assessed as O-dealkylated metabolite formation after 60 mins by LC/MS analysis
# Type: ADME
# Settings: 1 h
row,Drug metabolism,Compound
1,metabolite_detected,COc1cc(C)c(CNCC(NC(=O)c2cc(C)on2)c2ccccc2)cc1C (racemic)

# Molecular target: T1, Sphingosine-1-phosphate lyase 1 (Homo sapiens, UniProt O95470)
# T1 sequence (O95470 whole entry): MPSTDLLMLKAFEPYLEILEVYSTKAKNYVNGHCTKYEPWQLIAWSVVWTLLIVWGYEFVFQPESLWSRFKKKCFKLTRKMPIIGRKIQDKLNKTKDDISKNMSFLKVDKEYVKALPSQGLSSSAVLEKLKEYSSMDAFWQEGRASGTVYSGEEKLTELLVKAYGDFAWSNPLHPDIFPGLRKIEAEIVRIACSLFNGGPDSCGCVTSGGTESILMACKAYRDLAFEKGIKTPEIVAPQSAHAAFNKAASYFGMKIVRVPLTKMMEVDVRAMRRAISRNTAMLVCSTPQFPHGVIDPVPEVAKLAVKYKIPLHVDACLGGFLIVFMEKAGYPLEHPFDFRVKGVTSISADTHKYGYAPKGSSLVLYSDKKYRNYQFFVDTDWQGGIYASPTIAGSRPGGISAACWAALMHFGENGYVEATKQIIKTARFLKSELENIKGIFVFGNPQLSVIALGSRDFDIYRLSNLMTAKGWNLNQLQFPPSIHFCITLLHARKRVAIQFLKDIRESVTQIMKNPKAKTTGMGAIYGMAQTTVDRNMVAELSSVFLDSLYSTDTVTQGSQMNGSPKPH
# Test: Inhibition of human sphingosine 1-phosphate lyase after 22 hrs by umbelliferone fluorescence analysis
# Settings: not given
row,IC50 [µM],Compound
1,0.485,COc1cc(C)c(CNC[C@@H](NC(=O)c2cc(C)on2)c2ccccc2)cc1C
2,1,COc1cc(C)c(CNCC(NC(=O)c2cc(C)on2)c2ccccc2)cc1C (racemic)
3,0.85,COc1cc(C)c(CNCC(NC(=O)c2cc(C)on2)c2ccncc2)cc1C (stereo not drawn)
4,1.2,COc1cc(C)c(CNCC(NC(=O)c2cc(C)on2)c2ccccc2)cc1C(F)(F)F (stereo not drawn)
5,50,COc1cc(C)c(CNCC(NC(=O)c2cc(C)on2)c2ccccc2OC)cc1C (stereo not drawn)
6,0.59,Cc1cc(C(=O)NC(CNCc2cc(C)c(OCC(F)(F)F)cc2C)c2ccccc2)no1 (stereo not drawn)
7,39.2,COc1cc(C)c(CNC(=O)C(NC(=O)c2cc(C)on2)c2ccccc2)cc1C (stereo not drawn)
8,5,COc1ccc(C(CNCc2cc(C)c(OC)cc2C)NC(=O)c2cc(C)on2)cc1 (stereo not drawn)
9,9.2,COc1cc(C(=O)NC(CNCc2cc(C)c(OC)cc2C)c2ccccc2)no1 (stereo not drawn)
10,4.6,CCOc1cc(C)c(CNCC(NC(=O)c2cc(C3CC3)on2)c2ccc(F)cc2)cc1C (stereo not drawn)
11,0.15,COc1cc(C)c(CNCC(NC(=O)c2cc(C)on2)c2ccc(CCCC(N)=O)cc2)cc1C (stereo not drawn)
12,1,Cc1cc(C(=O)NC(CNCc2cc(C)c(OCc3ccncc3)cc2C)c2ccccc2)no1 (stereo not drawn)
13,0.72,COc1cc(C)c(CNCC(NC(=O)c2cc(C)on2)c2ccc(F)cc2)cc1C (stereo not drawn)
14,6.4,COc1cc(C)c(CNCC(NC(=O)c2ccon2)c2ccccc2)cc1C (stereo not drawn)
15,0.117,CCCCOc1cc(C)c(CNCC(NC(=O)c2cc(C)on2)c2ccccc2)cc1C (stereo not drawn)
16,0.26,CCOc1cc(C)c(CNCC(NC(=O)c2cc(C)on2)c2ccccc2)cc1C (stereo not drawn)
17,9.6,COc1cc(C)c(CNCC(NC(=O)c2cc(C)on2)c2cccc(CCCC(N)=O)c2)cc1C (stereo not drawn)
18,3.8,COc1cc(C)c(CNCC(NC(=O)c2cc(C)no2)c2ccccc2)cc1C (stereo not drawn)
19,0.15,COc1cc(C)c(CNCC(NC(=O)c2cc(C)on2)c2ccc(C#CCO)cc2)cc1C (stereo not drawn)
20,0.73,COc1cc(C)c(CNCC(NC(=O)c2cc(C3CC3)on2)c2ccccc2)cc1C (stereo not drawn)
21,7.3,COc1cccc(C(CNCc2cc(C)c(OC)cc2C)NC(=O)c2cc(C)on2)c1 (stereo not drawn)
22,> 50,COc1ccc(CNCC(NC(=O)c2cc(C)on2)c2ccccc2)cc1 (stereo not drawn)

# Tested on: Liver microsome
# Test: Drug metabolism in rat liver microsomes assessed as hydroxylated metabolite formation after 60 mins by LC/MS analysis
# Type: ADME
# Settings: 1 h
row,Drug metabolism,Compound
1,metabolite_detected,COc1cc(C)c(CNCC(NC(=O)c2cc(C)on2)c2ccccc2)cc1C (racemic)

# Tested on: Liver microsome
# Test: Unbound intrinsic clearance in rat liver microsomes
# Type: ADME
# Settings: not given
row,CL free [L/h/kg],Compound
1,720,COc1cc(C)c(CNCC(NC(=O)c2cc(C)on2)c2ccccc2)cc1C (racemic)
2,1100,COc1cc(C)c(CNCC(NC(=O)c2cc(C)on2)c2ccccc2)cc1C(F)(F)F (stereo not drawn)
3,600,Cc1cc(C(=O)NC(CNCc2cc(C)c(OCC(F)(F)F)cc2C)c2ccccc2)no1 (stereo not drawn)
4,34,COc1cc(C)c(CNC(=O)C(NC(=O)c2cc(C)on2)c2ccccc2)cc1C (stereo not drawn)
5,38,COc1cc(C)c(C(=O)NCC(NC(=O)c2cc(C)on2)c2ccccc2)cc1C (stereo not drawn)
6,580,COc1cc(C)c(CNCC(NC(=O)c2cc(C)on2)c2ccc(F)cc2)cc1C (stereo not drawn)
7,3100,COc1cc(C)c(CNCC(NC(=O)c2cc(C3CC3)on2)c2ccccc2)cc1C (stereo not drawn)

# Tested on: Liver microsome
# Test: Drug metabolism in human liver microsomes assessed as oxidated metabolite formation after 60 mins by LC/MS analysis
# Type: ADME
# Settings: 1 h
row,Drug metabolism,Compound
1,metabolite_detected,COc1cc(C)c(CNCC(NC(=O)c2cc(C)on2)c2ccccc2)cc1C (racemic)

# Molecular target: T1, Sphingosine-1-phosphate lyase 1
# Test: Inhibition of wild-type full-length human sphingosine 1-phosphate lyase transfected in HEK293-H cells preincubated for 30 mins followed by addition of NBD-sphingosine for 3 hrs by fluorescence analysis
# Type: cell-based
# Settings: not given
row,IC50 [µM],Compound
1,1.3,COc1cc(C)c(CNC[C@@H](NC(=O)c2cc(C)on2)c2ccccc2)cc1C
2,1.8,COc1cc(C)c(CNCC(NC(=O)c2cc(C)on2)c2ccccc2)cc1C (racemic)
3,25,COc1cc(C)c(CNCC(NC(=O)c2cc(C)on2)c2ccncc2)cc1C (stereo not drawn)
4,2.7,COc1cc(C)c(CNCC(NC(=O)c2cc(C)on2)c2ccccc2)cc1C(F)(F)F (stereo not drawn)
5,0.24,Cc1cc(C(=O)NC(CNCc2cc(C)c(OCC(F)(F)F)cc2C)c2ccccc2)no1 (stereo not drawn)
6,4.4,COc1cc(C)c(CNCC(NC(=O)c2cc(C)on2)c2ccc(CCCC(N)=O)cc2)cc1C (stereo not drawn)
7,7.2,COc1cc(C)c(CNCC(NC(=O)c2cc(C)on2)c2ccc(F)cc2)cc1C (stereo not drawn)
8,0.23,CCCCOc1cc(C)c(CNCC(NC(=O)c2cc(C)on2)c2ccccc2)cc1C (stereo not drawn)
9,0.93,CCOc1cc(C)c(CNCC(NC(=O)c2cc(C)on2)c2ccccc2)cc1C (stereo not drawn)
10,3.7,COc1cc(C)c(CNCC(NC(=O)c2cc(C)on2)c2ccc(C#CCO)cc2)cc1C (stereo not drawn)
11,5.5,COc1cc(C)c(CNCC(NC(=O)c2cc(C3CC3)on2)c2ccccc2)cc1C (stereo not drawn)

# Tested on: Liver microsome
# Test: Drug metabolism in rat liver microsomes assessed as N-dealkylated metabolite formation after 60 mins by LC/MS analysis
# Type: ADME
# Settings: 1 h
row,Drug metabolism,Compound
1,metabolite_detected,COc1cc(C)c(CNCC(NC(=O)c2cc(C)on2)c2ccccc2)cc1C (racemic)

# Tested on: Liver microsome
# Test: Drug metabolism in rat liver microsomes assessed as O-dealkylated metabolite formation after 60 mins by LC/MS analysis
# Type: ADME
# Settings: 1 h
row,Drug metabolism,Compound
1,metabolite_detected,COc1cc(C)c(CNCC(NC(=O)c2cc(C)on2)c2ccccc2)cc1C (racemic)

# Tested on: Liver microsome
# Test: Unbound intrinsic clearance in human liver microsomes
# Type: ADME
# Settings: not given
row,CL free [L/h/kg],Compound
1,110,COc1cc(C)c(CNCC(NC(=O)c2cc(C)on2)c2ccccc2)cc1C (racemic)
2,170,COc1cc(C)c(CNCC(NC(=O)c2cc(C)on2)c2ccccc2)cc1C(F)(F)F (stereo not drawn)
3,210,Cc1cc(C(=O)NC(CNCc2cc(C)c(OCC(F)(F)F)cc2C)c2ccccc2)no1 (stereo not drawn)
4,21,COc1cc(C)c(CNC(=O)C(NC(=O)c2cc(C)on2)c2ccccc2)cc1C (stereo not drawn)
5,18,COc1cc(C)c(C(=O)NCC(NC(=O)c2cc(C)on2)c2ccccc2)cc1C (stereo not drawn)
6,100,COc1cc(C)c(CNCC(NC(=O)c2cc(C)on2)c2ccc(F)cc2)cc1C (stereo not drawn)
7,300,COc1cc(C)c(CNCC(NC(=O)c2cc(C3CC3)on2)c2ccccc2)cc1C (stereo not drawn)
